Reference: patent US9926529B2, “Derivation of neural stem cells and dopaminergic neurons from human pluripotent stem cells” (International Stem Cell Corporation, priority 2012, dated 2018)
Structures can show the parent of a compound that is named as a salt. Where two headings read alike, the source gives them in different places.

System: hPSC-NSCs
Assay: RT-PCR expression of dopamine neuron genes in hPSC-NSCs treated with small molecule hits
Assay type: cell-based, human
Conditions: for fold induction at 2.5 µM: Homo sapiens, Neuron, 336 h
Method: The method specifically involved treating both hESC-H9-NSCs (Invitrogen) and hPSC-NSCs with Purmorphamine (2 μM) and FGF8 (100 ng/mL) in NB medium [NeuroBasal medium, 1× GlutaMAX, 1× N2/B27 Supplement (Invitrogen)] for 7 days. After 7 days of Purmorphamine and FGF8 treatment, the NSCs were dissociated with Accutase (Sigma) and plated 20,000 cells/mL into Matrigel coated 96 well plates and treated with small molecule library (Torcris 1120 Biologically Active Compounds) at 2.5 μM final concentration for two weeks (FIG. 6A). Two weeks after treatment with small molecules, all wells were visually observed and scored based on neurite density and dopamine release. For measuring neurite density, cells were fixed with 4% paraformaldehyde and phase contrast images were acquired using Cellavista Cell Imaging System (Roche Applied Science) from randomly selected fields. Neurite density was measured using the Cellavista density software image processing program. Each experimental condition was done in duplicate wells, and at least three independent experiments were conducted to acquire the final results.
Conditioned medium from the top neurite inducers (Table 1) (wells containing the highest density of neurites compare to control 0.1% DMSO treated) were collected and analyzed using a dopamine ELISA assay (Cosmo Bio). Conditioned medium was collected from samples containing 50,000 cells per well and centrifuged at 3000 RPM to remove cell debris. Supernatant was then collected and analyzed for quantitative determination of dopamine using a commercial dopamine ELISA assay kit (CusaCosmo Bio). Data analysis was performed using the microtiter plate reader (BIO-TEK Synergy 2). The results presented are from three independent experiments (n=3) and represented as mean±standard error of mean (s.e.m.) and statistical analysis was performed using the two-tailed Student's t-test with a confidence level of 95% (α=0.05) with statistical significance of P<0.05. Additionally, total RNA from each well were collected and analyze by RT-PCR for expression of TuJ1, MAP2, TH, GRK2, EN1, DAT, AADC, PAX2, NURR1, PITX3 and LMX1B from hPSC-NSCs (Table 2). […] Analysis of the ELISA data indicated the top small molecule neurite inducers produced higher levels of dopamine than control non-treated cells (1.5 ng/mL). […] The percentages of TH positive cells produced by chemical treatment with Kenpaullone (33%), Guggulsterone (35%), Kynurenic Acid (19%), Immedthridine Dihydrobromide (21%), and Dimaprit Dihydrochloride (18%) were higher than 15% of TH positive cells obtained from hPSC-NSCs differentiated for ≥1 month using a standard dopaminergic differentiation medium (BDNF 20 ng/mL, GDNF 20 ng/mL, cAMP 200 μM, Abscorbic Acid 200 μM, TGFβ3 2 ng/mL and DAPT).
Total RNA from at least triplicate samples with around 1 million cells each was isolated using either QIAsymphony automatic purification system or RNeasy Plus Mini kit, according to manufacturer's instructions (Qiagen). Total RNA was used for reverse transcription with the iScript cDNA synthesis kit (Biorad) and Px2 Thermal Cycler (Thermo Scientific). To analyze gene expression, PCR reactions were performed in duplicate using 1/25-th of the cDNA per reaction and the QuantiTect Primer Assay and Quantitest SYBR Green master mix (Qiagen). qPCR was performed using the Rotor-Gene Q (Qiagen) 5 min at 95° C., 5 s at 92° C., and 20 s at 60° C. for 37 cycles followed by melt to check the specificity of the amplicons from 50 to 99° C. raising by 1° C. each step. Relative quantification was performed against a standard curve and quantified values were normalized against the input determined by PPIG. The primers used for the analysis are listed in Supplementary Table S1. […]

[1] = hPSC-NSCs primed 7 days with Purmorphamine and FGF8, small molecule 2.5 μM for two weeks, read-out: DDC (AADC) expression by RT-PCR
[2] = hPSC-NSCs primed 7 days with Purmorphamine and FGF8, small molecule 2.5 μM for two weeks, read-out: EN1 expression by RT-PCR
[3] = hPSC-NSCs primed 7 days with Purmorphamine and FGF8, small molecule 2.5 μM for two weeks, read-out: KCNJ6 expression by RT-PCR
[4] = hPSC-NSCs primed 7 days with Purmorphamine and FGF8, small molecule 2.5 μM for two weeks, read-out: LMX1B expression by RT-PCR
[5] = hPSC-NSCs primed 7 days with Purmorphamine and FGF8, small molecule 2.5 μM for two weeks, read-out: MAP2 expression by RT-PCR
[6] = hPSC-NSCs primed 7 days with Purmorphamine and FGF8, small molecule 2.5 μM for two weeks, read-out: NR4A2 (NURR1) expression by RT-PCR
[7] = hPSC-NSCs primed 7 days with Purmorphamine and FGF8, small molecule 2.5 μM for two weeks, read-out: Pax2 expression by RT-PCR
[8] = hPSC-NSCs primed 7 days with Purmorphamine and FGF8, small molecule 2.5 μM for two weeks, read-out: SLC6A3 (DAT) expression by RT-PCR
[9] = hPSC-NSCs primed 7 days with Purmorphamine and FGF8, small molecule 2.5 μM for two weeks, read-out: TH1 expression by RT-PCR
[10] = hPSC-NSCs primed 7 days with Purmorphamine and FGF8, small molecule 2.5 μM for two weeks, read-out: Tubb3 expression by RT-PCR
[11] = hPSC-NSCs primed 7 days with Purmorphamine and FGF8, small molecule 2.5 μM for two weeks, read-out: PITX3 expression by RT-PCR
[12] = hPSC-NSCs primed 7 days with Purmorphamine and FGF8, small molecule 2.5 μM for two weeks
[13] = read-out: SLC6A3 (DAT) expression by RT-PCR

`FC(F)(F)c1cccc(-c2noc(-c3cc(-c4ccccc4)c(C(F)(F)F)s3)n2)c1` [SEW 2871] showed a fold induction at 2.5 µM [1] of 68.3, a fold induction at 2.5 µM [2] of 8.08 and a fold induction at 2.5 µM [3] of 0.88. The fold induction at 2.5 µM [4] was 3.65, the fold induction at 2.5 µM [5] was 12.3 and the fold induction at 2.5 µM [6] was 2.36. The fold induction at 2.5 µM [7] was 1.59, the fold induction at 2.5 µM [8] was 32.1 and the fold induction at 2.5 µM [9] was 7.6. For the same compound, the fold induction at 2.5 µM [10] was 5.17.

`O=C(CCCN1CCC2(CC1)C(=O)NCN2c1ccccc1)c1ccc(F)cc1` [Spiperone hydrochloride] gave a fold induction at 2.5 µM [1] of 13.1, a fold induction at 2.5 µM [2] of 7.4 and a fold induction at 2.5 µM [3] of 0.24. The fold induction at 2.5 µM [5] was 9.66, the fold induction at 2.5 µM [6] was 0.58 and the fold induction at 2.5 µM [11] was 0.18. The fold induction at 2.5 µM [8] was 1.25, the fold induction at 2.5 µM [9] was 11.1 and the fold induction at 2.5 µM [10] was 3.57.

`C/C(=C\c1ccc(C(=O)O)cc1)c1ccc2c(c1)C(C)(C)CCC2(C)C` [TTNPB] was tested, and the “DDC (AADC) expression by RT-PCR” value [12] was 21.95, the “EN1 expression by RT-PCR” value [12] was 9.42 and the “KCNJ6 (GRK2) expression by RT-PCR” value [12] was 0.69. For the same compound, the “LMX1B expression by RT-PCR” value [12] was 1.45, the “MAP2 expression by RT-PCR” value [12] was 6.36 and the “NR4A2 (NURR1) expression by RT-PCR” value [12] was 14.8. For the same compound, the “Pax2 expression by RT-PCR” value [12] was 0.09, the “SLC6A3 (DAT) expression by RT-PCR” value [12] was 0.5 and the “TH1 expression by RT-PCR” value [12] was 5.5. For the same compound, the “Tubb3 expression by RT-PCR” value [12] was 4.64.

`S=C(NC1CCCCC1)N1CCC(c2cnc[nH]2)CC1` [Thioperamide] gave a fold induction at 2.5 µM [13] of 25.5, a fold induction at 2.5 µM [1] of 95.6 and a fold induction at 2.5 µM [2] of 7.72. It also gave a fold induction at 2.5 µM [3] of 2.21, a fold induction at 2.5 µM [4] of 3.81 and a fold induction at 2.5 µM [5] of 13.2. For the same compound, the fold induction at 2.5 µM [6] was 3.43, the fold induction at 2.5 µM [11] was 0.28 and the fold induction at 2.5 µM [7] was 1.15. It also gave a fold induction at 2.5 µM [9] of 8.38 and a fold induction at 2.5 µM [10] of 5.6.

In the case of `Cl.N=C(N)NC(=N)Nc1cccc(Cl)c1` [m-Chlorophenylbiguanide hydrochloride], the “DDC (AADC) expression by RT-PCR” value [12] is reported as 69.41, the “EN1 expression by RT-PCR” value [12] is reported as 7.96 and the “KCNJ6 (GRK2) expression by RT-PCR” value [12] is reported as 1.65. For the same compound, the “LMX1B expression by RT-PCR” value [12] was 3.73, the “MAP2 expression by RT-PCR” value [12] was 9.6 and the “NR4A2 (NURR1) expression by RT-PCR” value [12] was 5.51. The “Pax2 expression by RT-PCR” value [12] was 0.28, the “SLC6A3 (DAT) expression by RT-PCR” value [12] was 1.53 and the “TH1 expression by RT-PCR” value [12] was 6.67. For the same compound, the “Tubb3 expression by RT-PCR” value [12] was 4.97.

In the case of `O=C(O)/C=C/CO` [trans-4-Hydroxycrotonic acid], the fold induction at 2.5 µM [13] is reported as 6.11, the fold induction at 2.5 µM [1] is reported as 69.7 and the fold induction at 2.5 µM [2] is reported as 12.7. For the same compound, the fold induction at 2.5 µM [3] was 0.22, the fold induction at 2.5 µM [5] was 12.4 and the fold induction at 2.5 µM [6] was 4.49. For the same compound, the fold induction at 2.5 µM [9] was 13.2 and the fold induction at 2.5 µM [10] was 10.8.

With AM580 the “DDC (AADC) expression by RT-PCR” value [12] was 81.43, the “EN1 expression by RT-PCR” value [12] was 12.94 and the “KCNJ6 (GRK2) expression by RT-PCR” value [12] was 2.73. For the same compound, the “LMX1B expression by RT-PCR” value [12] was 2.16, the “MAP2 expression by RT-PCR” value [12] was 8.55 and the “NR4A2 (NURR1) expression by RT-PCR” value [12] was 7.11. The “Pax2 expression by RT-PCR” value [12] was 0.1, the “SLC6A3 (DAT) expression by RT-PCR” value [12] was 0.66 and the “TH1 expression by RT-PCR” value [12] was 5.28. The “Tubb3 expression by RT-PCR” value [12] was 4.58.
